Test: Displacement of [3H]-Tritium-N-(4-chloro-2-methyl-6-(methylcarbamoyl)phenyl)-1-(3-chloropyridin-2-yl)-3-(trifluoromethyl)-1H-pyrazole-5-carboxamide from Myzus persicae (green peach aphid) ryanodine receptor

In order of rising IC50:
1. CNC(=O)c1cc(C#N)cc(C)c1NC(=O)c1cc(Br)nn1-c1ncccc1Cl [CYANTRANILIPROLE]  2.11 µM
2. CNC(=O)c1cc(Cl)cc(C)c1NC(=O)c1cc(Br)nn1-c1ncccc1Cl [3-bromo-N-(4-chloro-2-methyl-6-(methylcarbamoyl)phenyl)-1-(3-chloropyridin-2-yl)-1H-pyrazole-5-carboxamide]  4.13 µM
3. Cc1cc(Cl)cc(C(=O)NC(C)(C)CS(C)(=O)=NC#N)c1NC(=O)c1cc(C(F)(F)F)nn1-c1ncccc1Cl (stereo unspecified)  4.86 µM
4. Cc1cc(C#N)cc(C(=O)NC(C)(C)CS(C)(=O)=NC#N)c1NC(=O)c1cc(Br)nn1-c1ncccc1Cl (stereo unspecified)  8.09 µM
5. Cc1cc(C#N)cc(C(=O)NC(C)(C)CS(C)(=N)=O)c1NC(=O)c1cc(Br)nn1-c1ncccc1Cl (stereo unspecified)  18.5 µM
6. Cc1cc(C(F)(C(F)(F)F)C(F)(F)F)ccc1NC(=O)c1cccc(I)c1C(=O)NC(C)(C)CS(C)(=O)=O [CHEBI:38798]  83.5 µM

— BindingDB's records for doi:10.1016/j.bmcl.2012.03.106 (Syngenta Crop Protection Muenchwilen, 2012)
